Assay results as given in paper PMC10290043, “Pharmacokinetics, safety, and antitumor activity of talazoparib monotherapy in Chinese patients with advanced solid tumors” (Investigational New Drugs, 2023).
Like-named read-outs stand apart in the source and are kept apart here.

Key:
[1] = parameters: method as in PMID 31489639; details: population PK model, 490 patients, cited from earlier work
[2] = parameters: method as in PMID 35907135; details: Japanese patients, cited from earlier work
advanced solid tumors = assay: Antitumor activity: best overall response / unconfirmed objective response by investigator assessment; format: in vivo, human
Protocol: Tumor assessments were performed on Day 29 and every 8 weeks thereafter for the initial 12 cycles, regardless of any dose interruptions or dose delays, and then performed per local standard practice after completion of Cycle 12. […] Unconfirmed objective response by investigator assessment was defined as a complete (disappearance of all target lesions) or partial (at least 30% decrease in the sum of diameters of target lesions) response recorded from Cycle 1 Day 1 until disease progression, start of subsequent anticancer therapy, or death due to any cause. Given the exploratory nature of the efficacy endpoint, confirmation of response was not required. Duration of response, calculated as the time from first documentation of complete response or partial response to date of first documentation of objective progression or death, was only calculated for the subgroup of patients with an unconfirmed objective response. All patients who had received at least 1 dose of talazoparib were included in the safety and efficacy analysis sets. All treated patients with at least 1 PK concentration in the single-dose and/or multiple-dose PK part were included in the PK concentration analysis set, and all treated patients with at least 1 of the PK parameters of primary interest in the single-dose and/or multiple-dose PK part were included in the PK parameter analysis set. All patients in the PK parameter analysis set who completed both the single-dose PK and multiple-dose PK parts without major protocol deviations were included in the PK evaluable analysis set.

[3] = parameters: method as in PMID 30110579; details: EMBRACA, cited from earlier work
[4] = Western and Japanese patients; cited from earlier work
[5] = parameters: method as in PMID 34388386; details: cited from earlier work
[6] = cited from earlier work; for Tmax: median (range)
[7] = Japanese patients, cited from earlier work; for Cmax / Tmax: ref Naito et al 2021 [16]
[8] = 11 patients with measurable disease at baseline
[9] = patients with measurable disease N=11
[10] = multiple dosing 1 mg QD oral, ref de Bono et al 2017
[11] = single dosing 1 mg oral, ref de Bono et al 2017

Compound: Cn1ncnc1[C@H]1c2n[nH]c(=O)c3cc(F)cc(c23)N[C@@H]1c1ccc(F)cc1 [talazoparib]
- Apparent volume of distribution of the central compartment ([1]; 4.79% interpatient variability): 162 L
- Mean apparent oral clearance ([1]; 27.0% interpatient variability): 6.36 L/h
- Patients with grade 3–4 treatment-related AEs ([2]; 10/19): 52.6%
- Treatment-related AE: anemia ([2]; 13/19): 68.4%
- Grade 5 AEs [2]: no grade 5 AEs
- Patients with treatment-related AEs [2]: all patients experienced treatment-related AEs
- Patients progressed by data cut-off (advanced solid tumors; [8]): 54.5%
- Patients with stable disease (advanced solid tumors; [8]): 36.4%
- ORR (best overall response of partial response) (advanced solid tumors; 11 patients with measurable disease at baseline, 95% CI 0.2–41.3): 9.1%
- Patients with non-complete response/non-progressive disease (advanced solid tumors; 15 treated patients): 6.7%
- Patients with partial response (advanced solid tumors; 15 treated patients): 6.7%
- Patients with stable disease (advanced solid tumors; 15 treated patients): 26.7%
- Unconfirmed objective response rate (investigator-assessed) (advanced solid tumors; 15 treated patients, 95% CI 0.2–31.9): 6.7%
- Disease control based on best overall response (advanced solid tumors; 15 treated patients, 95% CI 16.3–67.7): 40.0%
- Disease control rate (advanced solid tumors; 95% CI 16.7–76.6): 45.5%
- Best overall response: Complete response (advanced solid tumors; efficacy analysis set N=15): 0 n (%)
- Best overall response: Non-complete response/non-progressive disease (advanced solid tumors; efficacy analysis set N=15): 1 (6.7) n (%)
- Best overall response: Not evaluable (advanced solid tumors; efficacy analysis set N=15): 2 (13.3) n (%)
- Best overall response: Partial response (advanced solid tumors; efficacy analysis set N=15): 1 (6.7) n (%)
- Best overall response: Progressive disease (advanced solid tumors; efficacy analysis set N=15): 7 (46.7) n (%)
- Best overall response: Stable disease (advanced solid tumors; efficacy analysis set N=15): 4 (26.7) n (%)
- Disease control (advanced solid tumors; efficacy analysis set N=15, CR, PR, SD and non-CR/non-PD): 6 (40.0 [16.3–67.7]) n (%, [95% CI])
- Objective response (advanced solid tumors; efficacy analysis set N=15, complete and partial responses, Clopper-Pearson CI): 1 (6.7 [0.2–31.9]) n (%, [95% CI])
- Best overall response: Complete response (advanced solid tumors; [9]): 0 n (%)
- Best overall response: Non-complete response/non-progressive disease (advanced solid tumors; [9]): 0 n (%)
- Best overall response: Not evaluable (advanced solid tumors; [9]): 0 n (%)
- Best overall response: Partial response (advanced solid tumors; [9]): 1 (9.1) n (%)
- Best overall response: Progressive disease (advanced solid tumors; [9]): 6 (54.5) n (%)
- Best overall response: Stable disease (advanced solid tumors; [9]): 4 (36.4) n (%)
- Disease control (advanced solid tumors; [9]): 5 (45.5 [16.7–76.6]) n (%, [95% CI])
- Duration of response (advanced solid tumors; the one responder, measurable disease at baseline): 114 days
- Grade 3–4 TEAE: thrombocytopenia ([3]; 42/286): 15%
- Grade 3–4 TEAE: neutropenia ([3]; 60/286): 21%
- Grade 3–4 TEAE: anemia ([3]; 112/286): 39%
- Maximum tolerated dose of monotherapy [4]: 1 mg QD
- Grade 3–4 TEAE: neutropenia ([5]; TALAPRO-1, 10/127): 8%
- Grade 3–4 TEAE: thrombocytopenia ([5]; TALAPRO-1, 11/127): 9%
- Grade 3–4 TEAE: anemia ([5]; TALAPRO-1, 39/127): 31%
- Median time to Cmax ([6]; Western patients with advanced cancers): ≤ 2 h
- Mean accumulation ratio at steady state ([6]; Western patients): 2.4 fold
- t1/2 (plasma elimination, biphasic kinetics) ([6]; Western patients): approximately 2 days
- Cmax ([6]; multiple dosing 1 mg QD oral, N=6, ref de Bono et al 2017): 21.0 (7.99) ng/mL
- Tmax [6, 10]: 1.02 (0.75–2.00) h
- CL/F [6, 10]: 5.24 (1.39) L/h
- Cmax ([6]; single dosing 1 mg oral, N=5, US/UK sites, ref de Bono et al 2017): 10.6 (4.22) ng/mL
- t1/2 ([6]; single dosing 1 mg oral, arithmetic mean ± standard deviation, ref de Bono et al 2017): 52.9 ± 13.4 h
- VZ/F ([6]; single dosing 1 mg oral, column uncertain, ref de Bono et al 2017): 415 (170) L
- Tmax [6, 11]: 1.03 (0.73–2.07) h
- CL/F [6, 11]: 5.39 (1.59) L/h
- AUCtau ([7]; multiple dose 1 mg QD oral, geometric mean (geometric %CV), ref Naito et al 2021): 244.7 (21) ng.h/mL
- Cmax ([7]; multiple dose 1 mg QD oral, geometric mean (geometric %CV)): 32.84 ng/mL
- Tmax ([7]; multiple dose 1 mg QD oral, median (range)): 1.03 (0.7–1.9) h
- Rac ([7]; multiple dose 1 mg QD, median (range), ref Naito et al 2021): 2.32 (1.70–8.28)
- Cmax ([7]; single dose 1 mg oral, N=6, geometric mean (geometric %CV)): 13.78 ng/mL
- t1/2 ([7]; single dose 1 mg oral, arithmetic mean ± standard deviation, ref Naito et al 2021): 50.73 ± 10.1 h
- AUCinf ([7]; single dose 1 mg oral, geometric mean (geometric %CV), ref Naito et al 2021): 199.7 (9) ng.h/mL
- Tmax ([7]; single dose 1 mg oral, median (range)): 0.97 (0.5–2.0) h
